The text below walks through data of US8877946B2, “Benzylidene-indolinone compounds and their medical use” (National University of Singapore, priority 2011, dated 2014).

Molecules are shown by their SMILES. Where only a bound is given, the exact number is not on record here.

This test deals with HuH7 cells. In words: MTT antiproliferative (growth inhibition) assay on HuH7 cells. It is filed as cell-based, human. The conditions noted are these: Homo sapiens, Huh-7, MTT, 72 h incubation, mean and SD of 3 or more independent determinations (Tables 1-8), read-out: IC 50. An excerpt: MTT was purchased from DUCHEFA Biochemie ([…]). Sunitinib, and sodium dodecyl sulfate, bovine serum albuminwere obtained from Sigma Aldrich (Singapore). Sorafenib was purchase from Ontario Chem. Fetal bovine serum (FBS) was obtained from Invitrogen. Human hepatocellular carcinoma cells (HuH-7 and Hep G2), and human diploid fibroblast strain (IMR 90). HuH7 was obtained as gifts from Dr Ho Han Kiat, Department of Pharmacy, NUS. IMR90 and Hep G2 were purchased from American Type Culture Collection (ATCC). HuH-7 cells were cultured in DMEM (Dulbecco's Modified Eagle Medium, high glucose) with 10% v/v fetal bovine serum (FBS), 100 mg/L penicillin G and 100 mg/L streptomycin. IMR 90 cell were cultured in EMEM (Eagle's Minimum Essential Medium), with 10% v/v FBS and 100 mg/L penicillin G and 100 mg/L streptomycin. The cells were sub-cultured when HuH7 or Hep G2 reached a density of 70-80×10^5 cell/T75 flask, and IMR 90 reached 20×10^5 cell/T75 flask. Cells were used within 2-10 passages for viability experiments.
The anti-proliferative activity of the test compounds were determined by the MTT assay. An aliquot (200 μL, 3×10^4 cells/mL for HuH7, 3.75×10^4 cells/mL for Hep G2, and 2×10^4 cells/mL for IMR 90) of medium was added to each well of the microtitre plate. […] The existing medium was removed from each well and replaced by fresh medium (200 μL) containing a known concentration of test compound. The final concentration of DMSO in each well was maintained at 0.5% v/v. (1% v/v was also utilized if the compounds were not soluble) The test compounds were incubated with the cells for another 72 h at 37 deg C., 5% CO2. The medium was then removed from the well and replaced with FBS free medium (200 μL) and MTT (50 μL of 2 mg/mL solution in phosphate buffer saline, pH 7.4). The phosphate buffer saline comprises 10 mM of potassium phosphate and 137 mM sodium chloride. After incubation (3 h) at 37 deg C., 5% CO2, the supernatant was removed and a solution of 200 μL DMSO and 25 μL Sorenson buffer (0.1 M glycine, 0.1 M sodium chloride, adjusted to pH 10.5 with 0.1 M sodium hydroxide) was added to dissolve the formazan crystals in each well. Vehicle control were cells grown in 1% v/v DMSO/Medium for 72 h, 37 deg C., 5% CO2 while blank controls were wells that contained only 200 μL DMSO and 25 μL Sorenson buffer. Absorbances were measured at 570 nm on a microplate reader (Tecan, Infinite 200). The viability of cells at a given concentration of test compound was determined from the expression:
[formula] where abs_compound=absorbance of wells containing cells and test compound, abs_vehicle (Not the same as above. Change to abs_vehicle)=absorbance of vehicle control and abs_blank=absorbance of blank control.
Each concentration of test compound was evaluated at least 3 times on separate occasions, and two different stock solution were used. The IC50 value (concentration that inhibited 50% of cell growth) was determined from the sigmoidal curve obtained by plotting percentage viability versus logarithmic concentration of test compound using GraphPad Prism 5 (San Diego, USA).
Turning to `Cc1ccccc1/C=C1/C(=O)Nc2ccc(F)cc21` [Compound 4-5, (E)-5-Fluoro-3-(2-methyl-benzylidene)-1,3-dihydro-indol-2-one], the IC50 is 11.7 ± 1.1 µM.

As to `COc1ccc2c(c1)NC(=O)/C2=C/c1ccc(C(F)(F)F)cc1` [Compound 5-7, (E)-6-Methoxy-3-(4-trifluoromethyl-benzylidene)-1,3-dihydro-indol-2-one], the IC50 is above 30 µM. Under `COc1ccc2c(c1)NC(=O)/C2=C/c1ccc(F)cc1` [Compound 5-4, (E)-3-(4-Fluorobenzylidene)-6-methoxy-1,3-dihydro-indol-2-one] stands 5.36 ± 0.14 µM; under `O=C1Nc2ccc(Cl)cc2/C1=C\c1ccc(C(F)(F)F)cc1` [Compound 2-8, (E)-5-Chloro-3-(4-trifluoromethylbenzylidene)-1,3-dihydro-indol-2-one], 7.92 ± 1.45 µM; under `O=C1Nc2cc(F)c(F)cc2/C1=C\c1cccc(OC(F)(F)F)c1` [Compound 7-8, (E)-5,6-Difluoro-3-(3-trifluoromethoxyl-benzylidene)-1,3-dihydro-indol-2-one], 5.61 ± 0.26 µM.

For the compound `CS(=O)(=O)c1cccc(/C=C2/C(=O)Nc3cc(Cl)ccc32)c1` [Compound 1-16, (E)-6-Chloro-3-(3-methanesulfonyl-benzylidene)-1,3-dihydro-indol-2-one], the IC50 is 10.8 ± 3.72 µM.

Consider `CS(=O)(=O)c1cccc(C=C2C(=O)Nc3ccc(F)c(F)c32)c1` (mixture of isomers) [Compound 6-9, (E/Z)-4,5-Difluoro-3-(3-methanesulfonylbenzylidene)-1,3-dihydro-indol-2-one], for which the IC50 is 13.9 ± 2.03 µM.

With `O=C1Nc2ccc(Cl)cc2/C1=C\c1cccc(F)c1` [Compound 2-3, (E)-5-Chloro-3-(3-fluoro-benzylidene)-1,3-dihydro-indol-2-one], the IC50 is 15.1 ± 2.91 µM.

On to `COc1ccc2c(c1)NC(=O)/C2=C/c1ccccc1F` [Compound 5-2, (E)-3-(2-Fluoro-benzylidene)-6-methoxy-1,3-dihydro-indol-2-one], for which the IC50 worked out at 0.49 ± 0.05 µM. Under `O=C1Nc2cc(Cl)ccc2C1=Cc1ccc(F)c(F)c1` [Compound 1-12, (E)-6-Chloro-3-(3,4-difluoro-benzylidene) 1,3-dihydro-indolin-2-one] stands 16.7 ± 3.4 µM. The same measure for `O=C1Nc2ccc(Cl)cc2C1=Nc1cccc(C(F)(F)F)c1` [Compound 8-6, (E/Z) 5-Chloro-3-(3-trifluoromethyl-phenylimino)-1,3-dihydro-indol-2-one]: 20.3 ± 3.53 µM; for `Cc1cccc(/C=C2/C(=O)Nc3cc(Cl)ccc32)c1` [Compound 1-5, (E)-6-Chloro-3-(3-methyl-benzylidene)-1,3-dihydro-indol-2-one]: 11 ± 0.28 µM; for `CNS(=O)(=O)c1cccc(/C=C2/C(=O)Nc3ccc(Cl)cc32)c1` [Compound 2-14, (E)-3-(5-Chloro-2-oxo-1,2-dihydro-indol-3-ylidenemethyl)-N-methyl-benzenesulphonamide]: 3.13 ± 0.07 µM.

Regarding `O=C1Nc2ccc(Cl)cc2/C1=C\c1ccc(F)c(F)c1` [Compound 2-9, (E)-5-Chloro-3-(3,4-difluoro-benzylidene)-1,3-dihydro-indol-2-one], the IC50 amounted to 11.4 ± 1.45 µM. Regarding `CNS(=O)(=O)c1cccc(/C=C2\C(=O)Nc3ccc(F)c(F)c32)c1` [Compound 6-10, (Z)-3-(4,5-Difluoro-2-oxo-1,2-dihydro-indol-3-ylidenemethyl)-N-methyl-benzenesulphonamide], the IC50 came to 15.8 ± 3.37 µM. Under `CS(=O)(=O)c1cccc(/C=C2/C(=O)Nc3cc(F)ccc32)c1` [Compound 3-9, (E)-6-Fluoro-3-(3-methanesulfonyl-benzylidene)-1,3-dihydro-indol-2-one] stands 12.7 ± 1.54 µM. Under `Cc1ccc(/C=C2/C(=O)Nc3ccc(F)cc32)cc1` [Compound 4-7, (E)-5-Fluoro-3-(4-methyl-benzylidene)-1,3-dihydro-indol-2-one] stands 20.8 ± 4.02 µM.

In the case of `COc1ccc2c(c1)NC(=O)/C2=C/c1cccc(F)c1` [Compound 5-3, (E)-3-(3-Fluoro-benzylidene)-6-methoxy-1,3-dihydro-indol-2-one], the IC50 turned out to be 0.71 ± 0.07 µM. As to `O=C1Nc2cc(F)c(F)cc2/C1=C\c1ccccc1` [Compound 7-1, (E)-3-Benzylidene-5,6-difluoro-1,3-dihydro-indol-2-one], the IC50 is above 30 µM.

As to `O=C1Nc2ccccc2/C1=C\c1cccc(C(F)(F)F)c1` [Compound 8-1, (E) 3-(3-Trifluoromethyl-benzylidene)-1,3-dihydro-indol-2-one], the IC50 is 5.56 ± 0.06 µM. The same measure for `O=C1Nc2ccc(F)cc2/C1=C\c1ccc(F)c(F)c1` [Compound 4-12, (E)-3-(3,4-Difluoro-benzylidene)-5-fluoro-1,3-dihydro-indol-2-one]: 15.3 ± 0.18 µM. The same measure for `O=C1Nc2cc(Cl)ccc2/C1=C\c1cccc(F)c1` [Compound 1-3, (E)-6-Chloro-3-(3-fluoro-benzylidene)-1,3-dihydro-indol-2-one]: 10 ± 0.87 µM. Regarding `Cc1cccc(/C=C2/C(=O)Nc3ccc(F)cc32)c1` [Compound 4-6, (E)-5-Fluoro-3-(3-methyl-benzylidene)-1,3-dihydro-indol-2-one], the IC50 is above 30 µM. The same measure for `COc1ccc(/C=C2/C(=O)Nc3cc(Cl)ccc32)cc1` [Compound 1-8, (E)-6-Chloro-3-(4-methoxy-benzylidene)-1,3-dihydro-indol-2-one]: above 30 µM; for `CN(C)S(=O)(=O)c1cccc(/C=C2/C(=O)Nc3cc(Cl)ccc32)c1` [Compound 1-20, (E)-3-(6-Chloro-2-oxo-1,2-dihydro-indol-3-ylidenemethyl)-N,N-dimethyl-benzenesulfonamide]: 4.87 ± 0.36 µM; for `O=C1Nc2cc(F)c(F)cc2/C1=C\c1ccccc1F` [Compound 7-2, (E)-5,6-Difluoro-3-(2-fluoro-benzylidene)-1,3-dihydro-indol-2-one]: above 30 µM. Under `CN1C(=O)/C(=C/c2cccc(C(F)(F)F)c2)c2ccc(Cl)cc21` [Compound 8-5, (E)-6-Chloro-1-methyl-3-(3-trifluoromethyl-benzylidene)-1,3-dihydro-indol-2-one] stands 1.14 ± 0.19 µM. As for `O=C1Nc2cc(F)c(F)cc2/C1=C\c1ccccc1C(F)(F)F` [Compound 7-5, (E)-5,6-Difluoro-3-(2-trifluoromethyl-benzylidene)-1,3-dihydro-indol-2-one], the IC50 was above 30 µM. With `O=C1Nc2cc(Cl)ccc2/C1=C\c1ccccc1` [Compound 1-1, (E)-3-Benzylidene-6-chloro-1,3-dihydro-indol-2-one], the IC50 worked out at 17.5 ± 3.54 µM. Under `O=C1Nc2ccc(F)cc2/C1=C\c1ccc(F)cc1` [Compound 4-4, (E)-5-Fluoro-3-(4-fluoro-benzylidene)-1,3-dihydro-indol-2-one] stands 13.2 ± 0.42 µM. The same measure for `O=C1Nc2ccc(F)cc2/C1=C\c1ccccc1C(F)(F)F` [Compound 4-9, (E)-5-Fluoro-3-(2-trifluoromethyl-benzylidene)-1,3-dihydro-indol-2-one]: above 30 µM. The same measure for `CN1C(=O)/C(=C/c2cccc(C(F)(F)F)c2)c2ccccc21` [Compound 8-3, (E)-1-Methyl-3-(3-trifluoromethyl-benzylidene)-1,3-dihydro-indol-2-one]: 6.74 ± 1.23 µM; for `O=C1Nc2ccc(F)c(F)c2/C1=C/c1ccccc1F` [Compound 6-2, (Z)-4,5-Difluoro-3-(2-fluoro-benzylidene)-1,3-dihydro-indol-2-one]: 16.9 ± 1.67 µM.

Take `O=C1Nc2ccc(Cl)cc2/C1=C\c1cccc(OC(F)(F)F)c1` [Compound 2-10, (E)-5-Chloro-3-(3-trifluoromethoxyl-benzylidene)-1,3-dihydro-indol-2-one]: the IC50 turned out to be 3.83 ± 0.25 µM.

For `O=C1Nc2cc(F)ccc2/C1=C\c1ccc(C(F)(F)F)cc1` [Compound 3-7, (E)-6-Fluoro-3-(4-trifluoromethyl-benzylidene)-1,3-dihydro-indol-2-one], the IC50 worked out at 8.42 ± 0.27 µM.
